The text below walks through data of US20060004185A1, “Peptide antibiotics and peptide intermediates for their prepartion” (priority 2004, published 2006).

The test system of series [1] is Escherichia coli, ATCC #26. Kind of series: MIC, serial twofold broth dilution in Mueller Hinton broth. It counts as cell-based. Conditions: Escherichia coli ATCC #26, Mueller Hinton broth. A general note: In broth dilution the organism is exposed to a series of concentrations in liquid medium.
For series [2] the following is noted: cited from earlier work.
Series [3] has as its system Staphylococcus aureus Smith. Briefly: MIC, serial twofold broth dilution in Mueller Hinton broth. It counts as cell-based.

For Polymyxin B [reference compound], the “E. coli MIC” value in series [1] was 0.6 micrograms per milliliter. Besides, the renal toxicity result in series [2] (patients, recommended dosing) is given as “Some renal toxicity was observed”. For the same substance, in series [3], the Staph MIC is more than 10 µg/mL.

As for colistin, the “overall incidence of neurotoxicity” value in series [2] (human, in vivo) was 7.3%.
